Experimental data published in patent US20220002772A1, “METHOD FOR PRODUCING ALLOLACTOSE” (priority 2019, published 2022).

Legend:
[1] = system: lac promoter on the pUC19 plasmid; assay: Lac promoter inducibility by Blue-White screening method (JM109+pUC19 strain, X-Gal plates); type: cell-based, E. coli JM109; set-up: key to Blue coloration of formed colonies of JM109 + pUC19 strain: “x (cross)” indicates no blue coloration; “Δ (triangle)” indicates unclear blue coloration; “∘ (circle)” indicates clear blue coloration
Protocol: The lac promoter inducibility of allolactose was evaluated by the Blue-White screening method using E. coli JM109 and pUC19 plasmid.
Competent cells of E. coli JM109 (Takara Bio) were transformed with pUC19 plasmid (Takara Bio), and cultured on LB agar medium containing 50 mg/L ampicillin at 37° C. overnight, to form colonies. The formed colonies were streaked on LB agar medium containing 50 mg/L ampicillin, and single colonies were obtained, to thereby obtain a strain JM109+pUC19. […] Beta-galactosidase activity of the strain JM109 is lost unless alpha-complementarity is exerted.
The reaction mixture containing 55.8 g/L of allolactose obtained in (4) above was subjected to heating at 95° C. for 10 minutes to inactivate the enzyme, and the supernatant was passed through a 0.22 μm pore size filter, to obtain an allolactose solution. The obtained allolactose solution was diluted according to the dilution factors listed in Table 4 and added to LB agar media, and X-Gal (Thermo Fisher Scientific) was further added, to prepare LB agar media for Blue-White screening containing various concentrations of allolactose and X-gal. X-gal is degraded by beta-galactosidase, and the degradation product thereof, 4-chloro-3-bromo-indigo, provides blue coloration.
The JM109+pUC19 strain was streaked on each LB agar medium for Blue-White screening and cultured at 37° C. overnight, and the coloration of single-isolated colonies was observed.

[2] = system: lac promoter on the pUC19 plasmid; assay: Lac promoter inducibility with DasherGFP reporter (JM109+pUC-DGFP-PtI strain); type: cell-based, E. coli JM109; details: allolactose at 0.0075 mM in LB agar medium, 37° C. overnight, UV illuminator
Protocol: It is assumed that since blue coloration of the degradation product of X-gal by beta-galactosidase (LacZ) was used as the evaluation index in the evaluation in (6) above, allolactose was degraded by beta-galactosidase (LacZ), which is the reporter gene, and as a result the lac promoter inducibility of allolactose was attenuated under conditions with allolactose concentrations of 0.0075 to 0.015 mM.
PCR was performed by using FPB-27-441 plasmid (Cosmo Bio) as the template and primers of SEQ ID NOS: 5 and 6, to amplify a gene fragment encoding DasherGFP. Separately, PCR was performed by using a plasmid pUC19 plasmid (Takara Bio) as the template and primers of SEQ ID NOS: 7 and 8, to amplify an outside fragment of the plasmid. The PCR products were each purified by using Wizard SV Gel and PCR Clean-Up System (Promega). In-Fusion HD Cloning Kit (Takara Bio) was used to ligate the purified PCR products. E. coli JM109 was transformed with the reaction product, and cultured on LB agar medium containing 50 mg/L ampicillin at 37° C. overnight, to form colonies, to thereby obtain a transformant. A plasmid pUC19-DGFP, in which LacZα gene has been replaced with DasherGFP gene, was obtained from the obtained transformant by using Wizard Plus Miniprep System (Promega). […]

lac promoter = assay: Lac promoter inducibility in pET expression system (GH1-2 protein expression, SDS-PAGE, strain EcGHH6); type: cell-based, E. coli Rosetta 2(DE3)pLysS; details: liquid culture
Protocol: The lac promoter inducibility of allolactose was evaluated using the inducibility of pET expression system, which is commonly used for heterologous protein production, as an indicator. In the pET expression system, T7-polymerase, which is inducibly expressed from the lac promoter, highly expresses a gene downstream of the T7 promoter (e.g. a gene encoding a heterologous protein). As the heterologous protein to be produced, beta-galactosidase gene of a filamentous fungus Talaromyces cellulolyticus (hereinafter, also referred to as “gh1-2 gene”) was used.
RNA was prepared form cells of the T. cellulolyticus strain Y-94 (CBS 136886) by using RNeasy Plant Mini Kit (QIAGEN), and a full-length cDNA solution was prepared form the RNA solution by using SMARTer® RACE 5′/3′ kit. PCR was performed by using the cDNA solution as the template and primers of SEQ ID NOS: 13 and 14, to amplify a cDNA fragment of gh1-2 gene. Separately, PCR was performed by using a plasmid pET24a (Novagen) as the template and primers of SEQ ID NOS: 3 and 4, to amplify an outside fragment of the plasmid. The PCR products were each purified by using Wizard SV Gel and PCR Clean-Up System (Promega). In-Fusion HD Cloning Kit (Takara Bio) was used to ligate the purified PCR products. […]

SMILES: OC[C@H]1O[C@@H](OC[C@H]2OC(O)[C@H](O)[C@@H](O)[C@@H]2O)[C@H](O)[C@@H](O)[C@H]1O (some centres unmarked) [allolactose]
- Blue coloration of colonies (lac promoter inducibility) ([1]; allolactose concentrations of 0.0075 to 0.015 mM): blue coloration was obscured
- Blue coloration of colonies, i.e. induction of gene expression from the lac promoter ([1]; allolactose concentrations of 0.03 to 1.5 mM): blue coloration of colonies was observed
- Blue coloration of formed colonies of JM109 + pUC19 strain ([1]; final concentration of allolactose in plate media 0.0075 mM (dilution factor 21736)): Δ
- Blue coloration of formed colonies of JM109 + pUC19 strain ([1]; final concentration of allolactose in plate media 0.015 mM (dilution factor 10868)): Δ
- Blue coloration of formed colonies of JM109 + pUC19 strain ([1]; final concentration of allolactose in plate media 0.03 mM (dilution factor 5434)): ∘
- Blue coloration of formed colonies of JM109 + pUC19 strain ([1]; final concentration of allolactose in plate media 0.075 mM (dilution factor 2174)): ∘
- Blue coloration of formed colonies of JM109 + pUC19 strain ([1]; final concentration of allolactose in plate media 0.15 mM (dilution factor 1087)): ∘
- Blue coloration of formed colonies of JM109 + pUC19 strain ([1]; final concentration of allolactose in plate media 0.3 mM (dilution factor 543)): ∘
- Blue coloration of formed colonies of JM109 + pUC19 strain ([1]; final concentration of allolactose in plate media 1.5 mM (dilution factor 109)): ∘
- Blue coloration of formed colonies of JM109 + pUC19 strain ([1]; final concentration of allolactose in plate media 3 mM (dilution factor 54)): Δ
- Blue coloration of formed colonies of JM109 + pUC19 strain ([1]; final concentration of allolactose in plate media 15 mM (dilution factor 11)): x
- Fluorescent coloration of colonies (DasherGFP expression from lac promoter) [2]: fluorescent coloration of the colonies of the JM109+pUC-DGFP-PtI strain was observed
- Expression level of heterologous protein (GH1-2) (lac promoter; allolactose concentrations below 0.1 mM): decreased
- Expression of heterologous protein (GH1-2) compared with induction by 1 mM IPTG (lac promoter; allolactose final concentration 0.1 mM, 13° C., 14 hours): almost equally
